According to patent US20230287391A1, “KRAB FUSION REPRESSORS AND METHODS AND COMPOSITIONS FOR REPRESSING GENE EXPRESSION” (THE GOVERNING COUNCIL OF THE UNIVERSITY OF TORONTO, priority 2020, published 2023):

Legend:
Format in all cases: cell-based, human
[1] = test system: SV40 promoter driving EGFP expression in HEK293T cells; experiment: SV40-EGFP reporter silencing by KRAB-dCas9 fusions in HEK293T cells; conditions: KRAB fused to N terminus of dCas9, flow cytometry 21 d after infection
Source text: (§1) The human genome encodes over 350 KRAB domain proteins. It was postulated that KRAB domains would differ in their ability to silence gene expression when fused to dCas9. 57 human KRAB domains were individually fused to the N terminus of dCas9 and assayed for activity when recruited to one of two different genomically integrated reporter constructs. In one, they were recruited to a SV40 promoter driving EGFP expression in HEK293T cells, and in the other tethered to a 7×TetO array downstream of the polyadenylation site of a PGK1-EGFP-pA reporter in K562 cells (FIG. 1a). KRAB domains had strikingly different effects, spanning from almost complete silencing to no change at all (FIG. 1b,c and FIG. 5). The differences were not explained by expression levels of the dCas9 fusion (FIG. 3). […] KRAB was also fused to the C-terminus of dCas9 with similar results (see Example 5 and FIG. 3).
(§2) Cell culture. All HEK293T cells, including the SV40-EGFP reporter cell line (gift from Lei Stanley Qi lab, Stanford University), were maintained in Dulbecco's Modified Eagle's Medium (DMEM) with 10% fetal bovine serum (FBS), and 1% penicillin-streptomycin. Since the SV40-EGFP reporter cell line was originally generated with a random integration of lentivirus, a clonal line was made to ensure homogeneously high expression levels of EGFP and its targeting gRNA. […]

[2] = test system: 7×TetO array downstream of the polyadenylation site of a PGK1-EGFP-pA reporter in K562 cells; experiment: PGK1-EGFP-pA reporter silencing by KRAB-dCas9 fusions tethered to a 7xTetO array in K562 cells; conditions: KRAB fused to N terminus of dCas9
Source text: as §1, §2

HEK293T cells = experiment: Genome-wide CRISPRi cell viability dropout screen (Dolcetto Set A); conditions: depletion of gRNAs for gold-standard essential vs non-essential genes after 21 days
Source text: Finally, the performance of the three KRAB effector constructs was investigated in a large-scale unbiased screen. […] These cells were infected with the recently described Dolcetto Set A gRNA library targeting 18,901 genes with three gRNAs per gene and measured gRNA depletion after 21 days. The relative depletion of gRNAs targeting gold-standard essential genes and non-essential genes with each construct was compared with receiver operating characteristics (ROC) curves. […] It should be noted that the AUROC values reported here are somewhat lower than what has been reported for CRISPRi screens in other cell lines like K562 and […] but in line with the previously conducted screen in HEK293T cells (FIG. 2D, E). The lower efficiency may be due to the lower expression level of TRIM28 in HEK293T cells (FIG. 3).
CRISPRi. Viral titer for each cell line was determined on 15-cm dishes with a range of virus volumes (0, 50, 100, 150, 200, 250 and 500 μl). Validated HEK293T cells with heterogeneous expression of each repressor-dCas9 derivative was transduced at a dose resulting in ˜30% […]. Selection was done with 1 μg/ml puromycin 24 hrs post transduction resulting in complete selection within 48-72 hrs (TO). At ˜30% infection efficiency, enough cells were transduced to achieve an initial representation of >500-fold for each dCas9 variant. […]

[3] = test system: SV40-EGFP reporter cell line; experiment: ABA-induced recruitment of KRAB-PYL1 to ABI1-dCas9 at the SV40-EGFP reporter
Source text: The difference in KRAB-domain activity might be explained either by their intrinsic potency or by their distinct temporal dynamics. […] The interaction between plant proteins […] and PYL1 is induced by abscisic acid (ABA) in a reversible manner (FIG. 1f). A clonal SV40-EGFP reporter cell line expressing ABI1—dCas9 and a gRNA targeting two sites on the SV40 promoter was generated. These cells were then infected with either ZIM3 or KOX1 KRAB domain fused to PYL1 and treated with ABA for 20 d (FIG. 1g, solid lines). […] When ABA was withdrawn after 9d, derepression occurred with similar dynamics with both KRAB domains (FIG. 1g, dashed lines). Thus, the difference in KRAB-domain potency is not due to slower dynamics of KOX1 KRAB induced repression. […] This is consistent with previous studies showing that KRAB domains can mediate silencing via both reversible and irreversible mechanisms.

Substance | repression of EGFP reporter [1] | repression of EGFP reporter ([1]; listed as KOX1) | repression of EGFP reporter [2] | AUROC (gRNA-level) (HEK293T cells) | AUROC (gene-level) (HEK293T cells) | level of EGFP repression ([3]; 100 μM ABA for 20 d, compared with KOX1 KRAB-PYL1) | EGFP expression relative to the original levels ([3]; after 40-d silencing followed by ABA washout) [%]
KOX1 KRAB: KRAB domain from KOX1 (ZNF10) fused to dCas9, used in current implementations of CRISPRi | not a particularly strong repressor | did not repress the reporter very robustly | not a particularly strong repressor | 0.62 | 0.66 | – | –
ZIM3 KRAB-PYL1: ZIM3 KRAB domain fused to PYL1 (SEQ ID NO: 16), recruited to ABI1-dCas9 by abscisic acid | – | – | – | – | – | higher level of repression | 10
